Assay results from US7737166B2, “Antifungal bicyclic hetero ring compounds” (Daiichi Sankyo Company, Limited, priority 2005, dated 2010).
Converted amounts (≈) assume the structure as drawn.

Key:
Assay in all cases: Antifungal activity (GI80), growth inhibition in YPD20 medium by absorbance at 600 nm
Type in all cases: cell-based
C. albicans ATCC MYA-573 = conditions: minimum concentration for at least 80% cell growth inhibition, 37° C., absorbance 600 nm; for IC80: Candida albicans, read-out: GI80 (μg/ml) C. albicans ATCC MYA-573
Description: (§1) The antifungal activity of the compounds of the invention was determined according to the method mentioned below.
(§2) An YPD20 medium (1% yeast extract, 2% peptone, 20% glucose) was used,
(§3) (2) Preparation of Cell Liquid for Inoculation:
(§4) Cells incubated overnight with Sabouraud dextrose agar at 30° C. were suspended in 0.1% Tween 80-added saline, and then added to a concentrated medium (1.33% yeast extract, 2.67% peptone, 13.33% glucose) so that the final cell concentration could be 5×10^3 cells/ml, thereby preparing a cell liquid for inoculation.
(§5) (3) Production of Chemical Dilution Plate:
(§6) A metered sample was dissolved in dimethyl sulfoxide, and a 2-fold dilution series was prepared using dimethyl sulfoxide. A chemical dilution of 2 μl each was added to a flat-bottom 96-well plate with 40% glucose (48 μl) put in each well, thereby producing a chemical dilution plate.
(§7) (4) Inoculation and Cultivation of Cell Liquid:
(§8) The cell liquid (150 μl) prepared in (2) was added to the chemical dilution plate produced in (3), followed by aerobic static cultivation at 37° C.
(§9) (5) Determination of Antifungal Activity (GI80 Value):
(§10) After cultivation for […], the plate was stirred, and its absorbance (600 nm) was measured. Based on the absorbance as the index, the minimum chemical concentration for at least 80% cell growth inhibition relative to the cell growth in the chemical-free well was computed as a GI80 value.

C. albicans ATCC90028 = conditions: 37° C., absorbance 600 nm; for IC80: Candida albicans, ATCC90028, minimum concentration for at least 80% cell growth inhibition, read-out: GI80 (μg/ml) C. albicans ATCC90028; for GI80 (μg/ml) C. albicans ATCC90028: minimum concentration for at least 80% cell growth inhibition
Description: as §1, §2, §3, §4, §5, §6, §7, §8, §9, §10

C. glabrata ATCC48435 = conditions: 37° C., absorbance 600 nm; for IC80: Nakaseomyces glabratus, ATCC48435, minimum concentration for at least 80% cell growth inhibition, read-out: GI80 (μg/ml) C. glabrata ATCC48435; for GI80 (μg/ml) C. glabrata ATCC48435: minimum concentration for at least 80% cell growth inhibition
Description: as §1, §2, §3, §4, §5, §6, §7, §8, §9, §10

## CCOC(=O)[C@@H]1C[C@H]1c1nc2c(C#N)c(C)c(-c3ccccc3)c(N3CC[C@H](N(C)C)C3)c2o1 (relative stereo) [Example 112, Ethyl (1R*,2R*)-2-{4-cyano-7-[(3S)-3-(dimethylamino)pyrrolidin-1-yl]-5-methyl-6-phenyl-1,3-benzoxazol-2-yl}cyclopropanecarboxylate]
C. albicans ATCC MYA-573
  IC80: 0.063 µg/mL (≈ 0.137 µM)
C. albicans ATCC90028
  IC80: 0.032 µg/mL (≈ 0.0698 µM)
C. glabrata ATCC48435
  IC80: 0.032 µg/mL (≈ 0.0698 µM)

## Cc1c(-c2ccccc2)c(N2CC[C@H](N(C)C)C2)c2oc([C@@H]3C[C@H]3C(=O)N(C)C)nc2c1C#N (relative stereo) [Example 135, (1R*,2R*)-2-[4-Cyano-7-((S)-3-dimethylamino-pyrrolidinyl)-5-methyl-6-phenyl-benzoxazol-2-yl]-cyclopropanecarbonyldimethylamide]
C. albicans ATCC MYA-573
  GI80 (μg/ml) C. albicans ATCC MYA-573: 0.125 µg/mL (≈ 0.273 µM)
C. albicans ATCC90028
  GI80 (μg/ml) C. albicans ATCC90028: 0.125 µg/mL (≈ 0.273 µM)
C. glabrata ATCC48435
  GI80 (μg/ml) C. glabrata ATCC48435: 0.063 µg/mL (≈ 0.138 µM)

## Cc1c(-c2ccccc2)c(N2CC[C@H](N(C)C)C2)c2oc(C(C)(C)COCc3ccccc3)nc2c1C#N [Example 13, 2-[2-(Benzyloxy)-1,1-dimethylethyl]-7-[(3S)-3-(dimethylamino)pyrrolidin-1-yl]-5-methyl-6-phenyl-1,3-benzoxazole-4-carbonitrile]
C. albicans ATCC MYA-573
  IC80: 0.125 µg/mL (≈ 0.246 µM)
C. albicans ATCC90028
  IC80: 0.063 µg/mL (≈ 0.124 µM)
C. glabrata ATCC48435
  IC80: 0.032 µg/mL (≈ 0.0629 µM)

## Cc1c(-c2ccccc2)c(N2CC[C@H](N(C)C)C2)c2oc(-c3ccco3)nc2c1C#N [Example 34, 7-[(3S)-3-(Dimethylamino)pyrrolidin-1-yl]-2-(2-furyl)-5-methyl-6-phenyl-1,3-benzoxazole-4-carbonitrile]
C. albicans ATCC MYA-573
  IC80: 0.25 µg/mL (≈ 0.606 µM)
C. albicans ATCC90028
  IC80: 0.25 µg/mL (≈ 0.606 µM)
C. glabrata ATCC48435
  IC80: 0.032 µg/mL (≈ 0.0776 µM)

## Cc1c(-c2ccccc2)c(N2CC[C@H](N(C)C)C2)c2oc(C(=O)N(C)CCO)nc2c1C#N [Example 49, 4-Cyano-7-[(3S)-3-(dimethylamino)pyrrolidin-1-yl]N-(2-hydroxyethyl)-N,5-dimethyl-6-phenyl-1,3-benzoxazole-2-carboxamide]
C. albicans ATCC MYA-573
  IC80: 0.5 µg/mL (≈ 1.12 µM)
C. albicans ATCC90028
  IC80: 0.5 µg/mL (≈ 1.12 µM)
C. glabrata ATCC48435
  IC80: 0.063 µg/mL (≈ 0.141 µM)

## Cc1c(-c2ccccc2)c(N2CC[C@H](N(C)C)C2)c2oc(C(=O)N(C)CC(=O)N(C)C)nc2c1C#N [Example 50, 4-Cyano-N-[2-(dimethylamino)-2-oxoethyl]-7-[(3S)-3-(dimethylamino)pyrrolidin-1-yl]-N,5-dimethyl-6-phenyl-1,3-benzoxazole-2-carboxamide]
C. albicans ATCC MYA-573
  IC80: 2 µg/mL (≈ 4.09 µM)
C. albicans ATCC90028
  IC80: 2 µg/mL (≈ 4.09 µM)
C. glabrata ATCC48435
  IC80: 0.25 µg/mL (≈ 0.512 µM)

## CN[C@H]1CCN(c2c(-c3csc(C)n3)c(C)c(C#N)c3nc(C(=O)N(C)C)oc23)C1 [Example 52]
C. albicans ATCC MYA-573
  GI80 (μg/ml) C. albicans ATCC MYA-573: 1 µg/mL (≈ 2.36 µM)
C. albicans ATCC90028
  GI80 (μg/ml) C. albicans ATCC90028: 1 µg/mL (≈ 2.36 µM)
C. glabrata ATCC48435
  GI80 (μg/ml) C. glabrata ATCC48435: 0.25 µg/mL (≈ 0.589 µM)

## CC(=O)N(C)c1nc2c(C#N)c(C)c(-c3ccccc3)c(N3CC[C@H](N(C)C)C3)c2o1 [Example 54, N-{4-Cyano-7-[(3S)-3-(dimethylamino)pyrrolidin-1-yl]-5-methyl-6-phenyl-1,3-benzoxazol-2-yl}-N-methylacetamide]
C. albicans ATCC MYA-573
  IC80: 0.25 µg/mL (≈ 0.599 µM)
C. albicans ATCC90028
  IC80: 0.125 µg/mL (≈ 0.299 µM)
C. glabrata ATCC48435
  IC80: 0.063 µg/mL (≈ 0.151 µM)

## Cc1c(-c2ccccc2)c(N2CC[C@H](N(C)C)C2)c2oc(N(C)C)nc2c1C#N [Example 56, 2-(Dimethylamino)-7-[(3S)-3-(dimethylamino)pyrrolidin-1-yl]-5-methyl-6-phenyl-1,3-benzoxazole-4-carbonitrile]
C. albicans ATCC MYA-573
  IC80: 0.5 µg/mL (≈ 1.28 µM)
C. albicans ATCC90028
  IC80: 0.125 µg/mL (≈ 0.321 µM)
C. glabrata ATCC48435
  IC80: 0.063 µg/mL (≈ 0.162 µM)

## Cc1c(-c2ccccc2)c(N2CC[C@H](N(C)C)C2)c2oc(N(C)C(C)(C)C)nc2c1C#N [Example 62, 2-(N-tert-Butyl-N-methylamino)-7-[(3S)-3-(dimethylamino)pyrrolidin-1-yl]-5-methyl-6-phenyl-1,3-benzoxazole-4-carbonitrile]
C. albicans ATCC MYA-573
  IC80: 0.063 µg/mL (≈ 0.146 µM)
C. albicans ATCC90028
  IC80: 0.063 µg/mL (≈ 0.146 µM)
C. glabrata ATCC48435
  IC80: 0.032 µg/mL (≈ 0.0741 µM)

## Cc1c(-c2ccccc2)c(N2CC[C@H](N(C)C)C2)c2oc(N3CC(C(=O)O)C3)nc2c1C#N [Example 67, 1-{4-Cyano-7-[(3S)-3-(dimethylamino)pyrrolidin-1-yl]-5-methyl-6-phenyl-1,3-benzoxazol-2-yl}-azetidine-3-carboxylic acid]
C. albicans ATCC MYA-573
  IC80: > 4 µg/mL
C. albicans ATCC90028
  IC80: > 4 µg/mL
C. glabrata ATCC48435
  IC80: 0.25 µg/mL (≈ 0.561 µM)

## Cc1c(-c2ccccc2)c(N2CC[C@H](N(C)C)C2)c2oc(N(C)Cc3ncn[nH]3)nc2c1C#N [Example 72, 7-[(3S)-3-(Dimethylamino)pyrrolidin-1-yl]-5-methyl-2-[methyl(1H-1,2,4-triazol-5-ylmethyl)amino]-6-phenyl-1,3-benzoxazole-4-carbonitrile]
C. albicans ATCC MYA-573
  IC80: 0.5 µg/mL (≈ 1.1 µM)
C. albicans ATCC90028
  IC80: 0.5 µg/mL (≈ 1.1 µM)
C. glabrata ATCC48435
  IC80: 0.125 µg/mL (≈ 0.274 µM)

## Cc1c(-c2cc(F)cc(F)c2)c(N2CC[C@H](N(C)C)C2)c2oc(C3CC3)nc2c1C#N [Example 82, 2-Cyclopropyl-6-(3,5-difluorophenyl)-7-[(3S)-3-(dimethylamino)pyrrolidin-1-yl]-5-methyl-1,3-benzoxazole-4-carbonitrile]
C. albicans ATCC MYA-573
  IC80: 0.125 µg/mL (≈ 0.296 µM)
C. albicans ATCC90028
  IC80: 0.063 µg/mL (≈ 0.149 µM)
C. glabrata ATCC48435
  IC80: 0.032 µg/mL (≈ 0.0757 µM)

## Cc1c(-c2cccc(F)c2F)c(N2CC[C@H](N(C)C)C2)c2oc(C3CC3)nc2c1C#N [Example 83, 2-Cyclopropyl-6-(2,3-difluorophenyl)-7-[(3S)-3-(dimethylamino)pyrrolidin-1-yl]-5-methyl-1,3-benzoxazole-4-carbonitrile]
C. albicans ATCC MYA-573
  IC80: 0.5 µg/mL (≈ 1.18 µM)
C. albicans ATCC90028
  IC80: 0.5 µg/mL (≈ 1.18 µM)
C. glabrata ATCC48435
  IC80: 0.125 µg/mL (≈ 0.296 µM)

## Cc1c(-c2ccccc2)c(N2CC[C@H](N(C)C)C2)c2oc(-c3nccs3)nc2c1C#N [Example 93, 7-[(3S)-3-(Dimethylamino)pyrrolidin-1-yl]-5-methyl-6-phenyl-2-(1,3-thiazol-2-yl)-1,3-benzoxazole-4-carbonitrile]
C. albicans ATCC MYA-573
  IC80: 0.125 µg/mL (≈ 0.291 µM)
C. albicans ATCC90028
  IC80: 0.125 µg/mL (≈ 0.291 µM)
C. glabrata ATCC48435
  IC80: 0.032 µg/mL (≈ 0.0745 µM)

## Cc1c(-c2ccccc2)c(N2CC[C@H](N(C)C)C2)c2oc(C3CCC3)nc2c1C#N [Example 106, 2-Cyclobutyl-7-[(3S)-3-(dimethylamino)pyrrolidin-1-yl]-5-methyl-6-phenyl-1,3-benzoxazole-4-carbonitrile]
C. albicans ATCC MYA-573
  IC80: 0.125 µg/mL (≈ 0.312 µM)
C. albicans ATCC90028
  IC80: 0.063 µg/mL (≈ 0.157 µM)
C. glabrata ATCC48435
  IC80: < 0.016 µg/mL

## Cc1c(-c2ccccc2)c(N2CC[C@H](N(C)C)C2)c2oc(Cc3ccco3)nc2c1C#N [Example 122, 7-[(3S)-3-(Dimethylamino)pyrrolidin-1-yl]-2-(2-furylmethyl)-5-methyl-6-phenyl-1,3-benzoxazole-4-carbonitrile]
C. albicans ATCC MYA-573
  IC80: 0.5 µg/mL (≈ 1.17 µM)
C. albicans ATCC90028
  IC80: 0.5 µg/mL (≈ 1.17 µM)
C. glabrata ATCC48435
  IC80: 0.125 µg/mL (≈ 0.293 µM)

## CC(=O)NC1CN(c2nc3c(C#N)c(C)c(-c4ccccc4)c(N4CC[C@H](N(C)C)C4)c3o2)C1 [Example 126]
C. albicans ATCC MYA-573
  GI80 (μg/ml) C. albicans ATCC MYA-573: 0.5 µg/mL (≈ 1.09 µM)
C. albicans ATCC90028
  GI80 (μg/ml) C. albicans ATCC90028: 0.5 µg/mL (≈ 1.09 µM)
C. glabrata ATCC48435
  GI80 (μg/ml) C. glabrata ATCC48435: 0.125 µg/mL (≈ 0.273 µM)

## Cc1c(-c2ccccc2)c(N2CC[C@H](N(C)C)C2)c2oc(N3CCCC3=O)nc2c1C#N [Example 129]
C. albicans ATCC MYA-573
  GI80 (μg/ml) C. albicans ATCC MYA-573: 0.5 µg/mL (≈ 1.16 µM)
C. albicans ATCC90028
  GI80 (μg/ml) C. albicans ATCC90028: 0.25 µg/mL (≈ 0.582 µM)
C. glabrata ATCC48435
  GI80 (μg/ml) C. glabrata ATCC48435: 0.063 µg/mL (≈ 0.147 µM)

## CN[C@H]1CCN(c2c(-c3ccccc3)c(C)c(C#N)c3nc(C(=O)N(C)CCF)oc23)C1 [Example 134, 4-Cyano-N-(2-fluoroethyl)-N,5-dimethyl-7-[(3S)-3-(methylamino)pyrrolidin-1-yl]-6-phenyl-1,3-benzoxazole-2-carboxamide]
C. albicans ATCC MYA-573
  IC80: 0.5 µg/mL (≈ 1.15 µM)
C. albicans ATCC90028
  IC80: 0.5 µg/mL (≈ 1.15 µM)
C. glabrata ATCC48435
  IC80: 0.125 µg/mL (≈ 0.287 µM)
